Where two headings read alike, the source gives them in different places.
Key:
[1] = target: T1, leukocyte-type 12-lipoxygenase (Mus musculus, UniProt P39654); set-up: method as in PMID 23579993; details: cited from earlier work
T1 sequence (P39654 1-663): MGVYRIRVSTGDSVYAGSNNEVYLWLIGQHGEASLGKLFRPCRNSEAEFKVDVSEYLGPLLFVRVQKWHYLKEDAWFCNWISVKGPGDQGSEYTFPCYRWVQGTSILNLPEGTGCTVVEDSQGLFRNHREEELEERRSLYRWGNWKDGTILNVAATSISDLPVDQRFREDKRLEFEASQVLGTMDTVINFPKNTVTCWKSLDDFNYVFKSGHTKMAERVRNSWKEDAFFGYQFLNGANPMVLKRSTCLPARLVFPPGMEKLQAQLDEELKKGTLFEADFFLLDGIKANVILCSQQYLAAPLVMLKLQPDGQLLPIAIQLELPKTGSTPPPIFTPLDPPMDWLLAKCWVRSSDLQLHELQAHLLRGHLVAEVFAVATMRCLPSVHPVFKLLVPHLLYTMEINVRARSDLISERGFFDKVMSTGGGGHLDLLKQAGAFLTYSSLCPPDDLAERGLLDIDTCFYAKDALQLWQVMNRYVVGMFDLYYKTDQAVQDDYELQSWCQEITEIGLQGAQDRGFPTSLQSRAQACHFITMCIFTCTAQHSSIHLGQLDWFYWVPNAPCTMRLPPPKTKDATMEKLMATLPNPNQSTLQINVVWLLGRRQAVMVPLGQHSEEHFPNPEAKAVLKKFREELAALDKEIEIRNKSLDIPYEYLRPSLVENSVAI

[2] = target: T1, leukocyte-type 12-lipoxygenase; test: reversibility analysis of leukocyte-type 12-lipoxygenase inhibition (preincubation, 200-fold dilution); format: biochemical
Protocol: The preincubation mixture was 200-fold diluted 0, 5, 15, and 30 min, before starting the enzyme reaction under the standard condition for the lipoxygenase assay. […] On the other hands, tested ligurosides inhibited the leukocyte-type 12-lipoxygenase activity, even after 30 min, indicating an irreversible inhibition of the enzyme activity (Figure 4). Figure 4 Reversibility analysis of the leukocyte-type 12-lipoxygenase inhibition. The leukocyte-type 12-lipoxygenase was preincubated with 6 μM quercetin, liguroside A, liguroside C, and liguroside D, at 30 °C, for 5 min, and then the mixture was 200-fold diluted in the standard lipoxygenase reaction mixture. After 0, 5, 15, and 30 min, the mixtures were incubated with 25 μM arachidonic acid at 30 °C, for 5 min. […] The products extracted with ice-cold diethyl ether were analyzed by a reverse-phase HPLC, using a Waters Alliance system equipped with a COSMOSIL 5C18-MS-II column (5-μm particle, 250 × 4.6 mm i.d., Nacalai), with a solvent system of methanol-water-acetic acid (80:20:0.01, v/v), at a flow rate of 1 mL/min, as previously described. Absorption at 235 nm was continuously monitored, using a Waters 2489 UV/Visible detector (Waters, Milford, MA, USA). Protein concentration was determined using a bicinchoninic acid protein assay kit (Thermo Fisher Scientific, Waltham, MA, USA), with bovine serum albumin as a standard.

[3] = target: T1, leukocyte-type 12-lipoxygenase; test: leukocyte-type 12-lipoxygenase inhibition assay (arachidonic acid, HPLC quantification); format: biochemical; details: 25 μM arachidonic acid, 30 °C, 5 min; for inhibitory effect on leukocyte-type 12-lipoxygenase activity (in words): various concentrations (Figure 5)
Protocol: Figure 3 Inhibition of the leukocyte-type 12-lipoxygenase activity by liguroside C (closed circles) and liguroside D (open circles). Leukocyte-type 12-lipoxygenase was incubated with 25 μM arachidonic acid at 30 °C for 5 min in the standard reaction mixture, in the presence of inhibitors at various concentrations and the products were quantified using a reverse-phase HPLC. Relative enzyme activities, as compared with the activity without inhibitors, are shown.
Figure 5 Inhibition of the leukocyte-type 12-lipoxygenase activity by liguroside A (closed circles), kudingoside B (grey circles), kudingoside A (open circles), and lipedoside B-III (open lozenges). Leukocyte-type 12-lipoxygenase was incubated with 25 μM arachidonic acid, at 30 °C, for 5 min, in the standard reaction mixture in the presence of inhibitors, at various concentrations, and the products were quantified using a reverse-phase HPLC. Relative enzyme activities, as compared with the activity without inhibitors, are shown.
The lipoxygenase and cyclooxygenase reactions were carried out, as described previously. Briefly, leukocyte-type 12-lipoxygenase or 15-lipoxygenase-1 was preincubated with inhibitors, in a volume of 0.2 mL in 100 mM Tris-HCl buffer, at pH 7.4, for 5 min at 30 °C, and was then incubated with 25 μM arachidonic acid for 5 min at 30 °C. Platelet-type 12-lipoxygenase reaction was carried out the as same as leukocyte-type 12-lipoxygenase reaction, except for incubation condition of 30 min at 37 °C. 5-Lipoxygenase was preincubated in 100 mM Tris-HCl buffer at pH 7.4, 2 mM CaCl2, and 2 mM ATP, with inhibitors, for 5 min on ice and then incubated with 25 μM arachidonic acid, for 5 min at 30 °C. To reduce the metabolites of each lipoxygenase isozyme, we added glutathione peroxidase (0.1 unit) and 5 mM glutathione to the mixture, followed by incubation for another 20 min. The enzyme reactions of cyclooxygenase-1 and cyclooxygenase-2 were carried out, as described previously. Briefly, cyclooxygenase-1 and cyclooxygenase-2 were preincubated with inhibitors in a volume of 0.2 mL in 100 mM Tris-HCl buffer at pH 7.4, 2 μM hematin, and 5 mM tryptophan, for 5 min at 24 °C, and then incubated with 25 μM […], for 5 min at 24 °C. After the reaction was quenched by an addition of 50 mM HCl, 0.5 nmol of 15-HEDE were added as an internal standard for enzyme reactions. The products extracted with ice-cold diethyl ether were analyzed by a reverse-phase HPLC, using a Waters Alliance system equipped with a COSMOSIL 5C18-MS-II column (5-μm particle, 250 × 4.6 mm i.d., Nacalai), with a solvent system of methanol-water-acetic acid (80:20:0.01, v/v), at a flow rate of 1 mL/min, as previously described. Absorption at 235 nm was continuously monitored, using a Waters 2489 UV/Visible detector (Waters, Milford, MA, USA). Protein concentration was determined using a bicinchoninic acid protein assay kit (Thermo Fisher Scientific, Waltham, MA, USA), with bovine serum albumin as a standard.

O=C(O)C=Cc1ccc(O)cc1 [p-Coumaric acid, reference compound]
inhibition of leukocyte-type 12-lipoxygenase activity (in words) [1]: no inhibition

C/C(=C\CO[C@@H]1O[C@H](CO)[C@@H](OC(=O)/C=C\c2ccc(O)cc2)[C@H](O[C@@H]2O[C@@H](C)[C@H](O)[C@@H](O)[C@H]2O)[C@H]1O)C/C=C/C(C)(C)OO [liguroside B]
IC50 ([1]; previous report, read-out: IC50, inhibition of leukocyte-type 12-lipoxygenase activity): 700 nM

O=c1c(O)c(-c2ccc(O)c(O)c2)oc2cc(O)cc(O)c12 [quercetin]
inhibition of leukocyte-type 12-lipoxygenase activity at 6 μM (in words) ([2]; preincubated 5 min with 6 μM, no dilution): almost completely inhibited | reversibility of leukocyte-type 12-lipoxygenase inhibition after dilution ([2]; preincubation 6 μM 5 min at 30 °C, 200-fold dilution, 0, 5, 15 and 30 min before reaction): quickly recovered

C=CC(C)(C/C=C/C(C)(C)OO)O[C@@H]1O[C@H](CO)[C@@H](OC(=O)/C=C/c2ccc(O)cc2)[C@H](O[C@@H]2O[C@@H](C)[C@H](O)[C@@H](O)[C@H]2O)[C@H]1O (stereo partly drawn) [liguroside C, (5E)-7-hydroperoxy-3,7-dimethyl-1,5-octadienyl-3-O-(α-L-rhamnopyranosyl)-(1′′→3′)-(4′′′-O-trans-p-coumaroyl)-β-D-glucopyranoside]
IC50 [3]: 2900 nM

CC(C)=CCC/C(C)=C/CO[C@@H]1O[C@H](CO)[C@@H](OC(=O)/C=C/c2ccc(O)cc2)[C@H](O[C@@H]2O[C@@H](C)[C@H](O)[C@@H](O)[C@H]2O)[C@H]1O [kudingoside A]
inhibitory effect on leukocyte-type 12-lipoxygenase activity (in words) [3]: did not inhibit

C=CC(C)(CCC=C(C)C)O[C@@H]1O[C@H](CO)[C@@H](OC(=O)/C=C/c2ccc(O)cc2)[C@H](O[C@@H]2O[C@@H](C)[C@H](O)[C@@H](O)[C@H]2O)[C@H]1O (stereo partly drawn) [lipedoside B-III]
inhibitory effect on leukocyte-type 12-lipoxygenase activity (in words) [3]: did not inhibit

C/C(=C\CO[C@@H]1O[C@H](CO)[C@@H](OC(=O)/C=C/c2ccc(O)cc2)[C@H](O[C@@H]2O[C@@H](C)[C@H](O)[C@@H](O)[C@H]2O)[C@H]1O)C/C=C/C(C)(C)O [kudingoside B]
inhibitory effect on leukocyte-type 12-lipoxygenase activity (in words) [3]: lower inhibitory effect

C=C(C)C(CC/C(C)=C/CO[C@@H]1O[C@H](CO)[C@@H](OC(=O)/C=C/c2ccc(O)cc2)[C@H](O[C@@H]2O[C@@H](C)[C@H](O)[C@@H](O)[C@H]2O)[C@H]1O)OO (stereo partly drawn) [liguroside D]
IC50 [3]: 4200 nM

Source: publication PMC6358863, “Involvement of the Hydroperoxy Group in the Irreversible Inhibition of Leukocyte-Type 12-Lipoxygenase by Monoterpene Glycosides Contained in the Qing Shan Lu Shui Tea” (Molecules, 2019)
